Source: patent US6958142B2, “Nasal spray formulation and method” (Balance Pharmaceuticals, Inc., priority 2002, dated 2005)
In brackets after ≈: the same amount, converted by molar mass. Several values for one entry are separate records, joined by “and”; a condition that tells them apart may be missing. Equal values may be shown once. Read-outs that look alike come from different tables or passages of the source.

Tests used:
physchem = details: aqueous with cosolvent or surfactant or cyclodextrin, thermodynamic from solid
[1] = Serum testosterone average concentration over 24 hours after intranasal testosterone
Method: In another study, five women were treated with intranasal testosterone.

[2] = system: premenopausal women with uterine leiomyomata; experiment: Example 3: uterine size (uterine volume from ultrasound); assay type: in vivo, human
Method: (§2) The compound was administered using a commercially available nasal sprayer that delivered a 50 μL spray volume. The daily dose was administered by application of 50 μL to each nostril once per day, for a total daily volume of 100 μL. During the 12 week treatment period the patients kept daily bleeding calendars and underwent clinical assessments at scheduled intervals.
(§3) A 12 week study was performed to establish an effective dose of deslorelin for controlling heavy bleeding secondary to uterine leiomyomata. Forty-one premenopausal women completed the study and are identified as Subject Nos. 1 through 41. The women were divided into test groups for treatment with intranasal deslorelin as follows:
(§4) For one complete menstrual cycle prior to treatment, each woman completed a daily bleeding calendar. Eligible subjects were then treated with deslorelin at the assigned dosage once per day by intranasal application. During the 12 weeks of daily intranasal administration, each woman kept a daily bleeding calendar, completed quality of life questionnaires, and underwent clinical assessment and laboratory testing.

[3] = system: heavy bleeding secondary to uterine leiomyomata; experiment: Example 3: bleeding score from daily bleeding calendars; assay type: in vivo, human
Method: as §2, §3, §4

[4] = system: premenopausal females with uterine fibroids; experiment: Example 8: reduction of bleeding into the normal range; assay type: in vivo, human; details: deslorelin 1 mg/day intranasal
Method: (§1) Premenopausal females (n=265) with uterine fibroids were recruited for participation in a 12 month double blind study. The women were randomly assigned to treatment in one of the following five study arms: Deslorelin at a daily dose of 1 mg was administered intranasally using a conventional metered spray delivery device. The intranasal preparation was a 100 μL daily nasal spray containing 1.0 mg deslorelin. […] Women with uterine fibroids often experience very heavy bleeding (menorrhagia) and uterine enlargement leading to pelvic pain and pressure symptoms. Clinical benefit was assessed by measuring changes in bleeding score (percent of subjects with reduction of bleeding into the normal range) and uterine volume. Shown in Table 9A are the percent of subjects responding (reduction of bleeding into the normal range) after 3 and 6 months of treatment.

[5] = system: premenopausal females with uterine fibroids; experiment: Example 8: change in uterine volume; assay type: in vivo, human; details: 6 Months of treatment compared to baseline
Method: as §1

[6] = system: bone mineral density of the lumbar spine; details: in vivo
Text: Bone mineral density (BMD) of the lumbar spine was obtained by dual-energy X-ray absorptiometry (DEXA) prior to and after six months of drug treatment.

[7] = system: ovarian estrogen and progesterone production; experiment: Example 3: serum hormone levels
Method: In a first study, deslorelin was administered alone to determine an appropriate dose for treatment of an exemplary benign gynecological disorder, uterine leiomyomata (fibroids). More specifically, the dose appropriate to control the heavy bleeding secondary to uterine leiomyomata was determined. […] The compound was administered using a commercially available nasal sprayer that delivered a 50 μL spray volume. The daily dose was administered by application of 50 μL to each nostril once per day, for a total daily volume of 100 μL. During the 12 week treatment period the patients kept daily bleeding calendars and underwent clinical assessments at scheduled intervals. Clinical assessments included grading of nasal irritation (Table 5A), determination of uterine size (Table 5B), and serum hormone levels (Table 5C).
Eligible subjects were then treated with deslorelin at the assigned dosage once per day by intranasal application. During the 12 weeks of daily intranasal administration, each woman kept a daily bleeding calendar, completed quality of life questionnaires, and underwent clinical assessment and laboratory testing. […] Clinical assessments included grading of nasal irritation (Table 5A), determination of uterine size (Table 5B), and serum hormone levels (Table 5C).

[8] = at 25° C.; cited from earlier work
[9] = Deslorelin 0.5 mg/day, Baseline
[10] = Deslorelin 0.5 mg/day, End of Week 4
[11] = Deslorelin 0.5 mg/day, End of Week 8
[12] = Deslorelin 0.5 mg/day, End of Week 12
[13] = Deslorelin 1 mg/day, End of Week 4
[14] = Deslorelin 1 mg/day, End of Week 8
[15] = Deslorelin 1 mg/day, End of Week 12
[16] = Deslorelin 2 mg/day, End of Week 4
[17] = Deslorelin 2 mg/day, End of Week 8
[18] = Deslorelin 2 mg/day, End of Week 12

SMILES: C[C@]12CC[C@H]3[C@@H](CCC4=CC(=O)CC[C@@]43C)[C@@H]1CC[C@@H]2O [Testosterone, testosterone]
- Molar Ratio steroid/HPβCD (both steroids together, HPβCD 10 mg/mL): 0.31
- Molar Ratio steroid/HPβCD (both steroids together, HPβCD 40 mg/mL): 0.34
- Molar Ratio steroid/HPβCD (both steroids together, HPβCD 70 mg/mL): 0.35
- Molar Ratio steroid/HPβCD (both steroids together, HPβCD 100 mg/mL): 0.34
- Molar Ratio steroid/HPβCD (both steroids together, HPβCD 130 mg/mL): 0.39
- Molar Ratio steroid/HPβCD (both steroids together, HPβCD 160 mg/mL): 0.40
- Molar Ratio steroid/HPβCD (both steroids together, HPβCD 190 mg/mL): 0.40
- Molar Ratio steroid/HPβCD (both steroids together, HPβCD 250 mg/mL): 0.38
- Molar Ratio steroid/HPβCD (steroid alone, HPβCD 10 mg/mL): 0.39
- Molar Ratio steroid/HPβCD (steroid alone, HPβCD 40 mg/mL): 0.30
- Molar Ratio steroid/HPβCD (steroid alone, HPβCD 70 mg/mL): 0.38
- Molar Ratio steroid/HPβCD (steroid alone, HPβCD 100 mg/mL): 0.33
- Molar Ratio steroid/HPβCD (steroid alone, HPβCD 130 mg/mL): 0.43
- Molar Ratio steroid/HPβCD (steroid alone, HPβCD 160 mg/mL): 0.41
- Molar Ratio steroid/HPβCD (steroid alone, HPβCD 190 mg/mL): 0.42
- Molar Ratio steroid/HPβCD (steroid alone, HPβCD 220 mg/mL): 0.40
- Molar Ratio steroid/HPβCD (steroid alone, HPβCD 250 mg/mL): 0.41
- solubility (physchem; Estradiol and Testosterone solubility, both steroids together in aqueous HPβCD 10 mg/mL): 0.658 mg/mL (≈ 2.28 mM)
- solubility (physchem; Estradiol and Testosterone solubility, both steroids together in aqueous HPβCD 40 mg/mL): 2.82 mg/mL (≈ 9.77 mM)
- solubility (physchem; Estradiol and Testosterone solubility, both steroids together in aqueous HPβCD 70 mg/mL): 5.07 mg/mL (≈ 17.6 mM)
- solubility (physchem; Estradiol and Testosterone solubility, both steroids together in aqueous HPβCD 100 mg/mL): 7.11 mg/mL (≈ 24.7 mM)
- solubility (physchem; Estradiol and Testosterone solubility, both steroids together in aqueous HPβCD 130 mg/mL): 10.6 mg/mL (≈ 36.6 mM)
- solubility (physchem; Estradiol and Testosterone solubility, both steroids together in aqueous HPβCD 160 mg/mL): 13.4 mg/mL (≈ 46.5 mM)
- solubility (physchem; Estradiol and Testosterone solubility, both steroids together in aqueous HPβCD 190 mg/mL): 15.7 mg/mL (≈ 54.6 mM)
- solubility (physchem; Estradiol and Testosterone solubility, both steroids together in aqueous HPβCD 250 mg/mL): 20 mg/mL (≈ 69.3 mM)
- solubility (physchem; solubility, steroid alone in aqueous HPβCD 10 mg/mL): 0.81 mg/mL (≈ 2.81 mM)
- solubility (physchem; solubility, steroid alone in aqueous HPβCD 40 mg/mL): 2.54 mg/mL (≈ 8.81 mM)
- solubility (physchem; solubility, steroid alone in aqueous HPβCD 70 mg/mL): 5.63 mg/mL (≈ 19.5 mM)
- solubility (physchem; solubility, steroid alone in aqueous HPβCD 100 mg/mL): 6.82 mg/mL (≈ 23.6 mM)
- solubility (physchem; solubility, steroid alone in aqueous HPβCD 130 mg/mL): 11.6 mg/mL (≈ 40.4 mM)
- solubility (physchem; solubility, steroid alone in aqueous HPβCD 160 mg/mL): 13.9 mg/mL (≈ 48.1 mM)
- solubility (physchem; solubility, steroid alone in aqueous HPβCD 190 mg/mL): 16.5 mg/mL (≈ 57.3 mM)
- solubility (physchem; solubility, steroid alone in aqueous HPβCD 220 mg/mL): 18.6 mg/mL (≈ 64.5 mM)
- solubility (physchem; solubility, steroid alone in aqueous HPβCD 250 mg/mL): 21.7 mg/mL (≈ 75.2 mM)
- Testosterone average concentration over 24 hours ([1]; intranasal 250 μg testosterone in preparation with deslorelin and estradiol, Day 1, individual subjects): 26.7 ng/dL (2×) and 19.0 ng/dL and 18.8 ng/dL and 19.1 ng/dL
- Testosterone average concentration over 24 hours ([1]; intranasal 250 μg testosterone in preparation with deslorelin and estradiol, Day 8, individual subjects): 29.9 ng/dL and 17.1 ng/dL and 16.5 ng/dL and 16.2 ng/dL and 24.1 ng/dL
- Testosterone average concentration over 24 hours ([1]; intranasal 250 μg testosterone, average of both observations (Day 1, Day 8) in each of the 5 subjects): 21.4 ng/dL

SMILES: CCNC(=O)[C@@H]1CCCN1C(=O)[C@H](CCCN=C(N)N)NC(=O)[C@H](CC(C)C)NC(=O)[C@@H](Cc1c[nH]c2ccccc12)NC(=O)[C@H](Cc1ccc(O)cc1)NC(=O)[C@H](CO)NC(=O)[C@H](Cc1c[nH]c2ccccc12)NC(=O)[C@H](Cc1cnc[nH]1)NC(=O)[C@@H]1CCC(=O)N1 [Deslorelin, (pyro)Pro-His-Trp-Ser-Tyr-DTrp-Leu-Arg-Pro-ethylamide]
- uterine volume calculated from ultrasound determined dimensions (in words) ([2]; 0.5, 1.0, 2.0 mg/day, 12 weeks): reduction in uterine volume
- Uterine Size Mean Difference (end of week 12 minus baseline uterine volume) ([2]; Deslorelin 0.5 mg/day intranasal): −109.6 cm^3
- Uterine Size Mean Difference (end of week 12 minus baseline uterine volume) ([2]; Deslorelin 1 mg/day intranasal): −63.6 cm^3
- Uterine Size Mean Difference (end of week 12 minus baseline uterine volume) ([2]; Deslorelin 2 mg/day intranasal): −246.5 cm^3
- Bleeding Score ([3]; Deslorelin 0.5 mg/day, Baseline Score, 0 no bleeding, 5 normal flow, 10 or greater menorrhagia): 10.9
- Bleeding Score ([3]; Deslorelin 0.5 mg/day, Weeks 1-4): 6.6
- Bleeding Score ([3]; Deslorelin 0.5 mg/day, Weeks 5-8): 3.5
- Bleeding Score ([3]; Deslorelin 0.5 mg/day, Weeks 9-12): 2.6
- Bleeding Score ([3]; Deslorelin 1 mg/day, Baseline Score): 10.8
- Bleeding Score ([3]; Deslorelin 1 mg/day, Weeks 1-4): 7.8
- Bleeding Score ([3]; Deslorelin 1 mg/day, Weeks 5-8): 0.4
- Bleeding Score ([3]; Deslorelin 1 mg/day, Weeks 9-12): 1.7
- Bleeding Score ([3]; Deslorelin 2 mg/day, Baseline Score): 14.1
- Bleeding Score ([3]; Deslorelin 2 mg/day, Weeks 1-4): 6.6
- Bleeding Score ([3]; Deslorelin 2 mg/day, Weeks 5-8): 1.2
- Bleeding Score ([3]; Deslorelin 2 mg/day, Weeks 9-12): 0.6
- effectiveness (in words) ([3]; all tested doses (0.5, 1.0, 2.0 mg/day)): partially or completely effective with reduction of bleeding, associated pain, and uterine size
- bleeding score (in words) ([3]; end of the 12 week study): marked improvement in their bleeding score
- % with reduction of bleeding into the normal range ([4]; 3 Months): 69%
- % with reduction of bleeding into the normal range ([4]; 6 Months): 92%
- Proportion of Initial Volume (uterine volume) [5]: 0.675
- Mean Ratio (BMD6 mo/BMDbaseline) [6]: 0.971
- Hormone Levels: Estradiol [7, 9]: 173 pg/mL
- Hormone Levels: Progesterone [7, 9]: 641 ng/dL
- Hormone Levels: Testosterone [7, 9]: 24 ng/dL
- Hormone Levels: Estradiol [7, 10]: 47 pg/mL
- Hormone Levels: Progesterone [7, 10]: 40 ng/dL
- Hormone Levels: Testosterone [7, 10]: 19 ng/dL
- Hormone Levels: Estradiol [7, 11]: 79 pg/mL
- Hormone Levels: Progesterone [7, 11]: 30 ng/dL
- Hormone Levels: Testosterone [7, 11]: 22 ng/dL
- Hormone Levels: Estradiol [7, 12]: 66 pg/mL
- Hormone Levels: Progesterone [7, 12]: 37 ng/dL
- Hormone Levels: Testosterone [7, 12]: 23 ng/dL
- Hormone Levels: Estradiol ([7]; Deslorelin 1 mg/day, Baseline): 123 pg/mL
- Hormone Levels: Progesterone ([7]; Deslorelin 1 mg/day, Baseline): 480 ng/dL
- Hormone Levels: Testosterone ([7]; Deslorelin 1 mg/day, Baseline): 26 ng/dL
- Hormone Levels: Estradiol [7, 13]: 51 pg/mL
- Hormone Levels: Progesterone [7, 13]: 12 ng/dL
- Hormone Levels: Testosterone [7, 13]: 22 ng/dL
- Hormone Levels: Estradiol [7, 14]: 95 pg/mL
- Hormone Levels: Progesterone [7, 14]: 25 ng/dL
- Hormone Levels: Testosterone [7, 14]: 20 ng/dL
- Hormone Levels: Estradiol [7, 15]: 30 pg/mL
- Hormone Levels: Progesterone [7, 15]: 10 ng/dL
- Hormone Levels: Testosterone [7, 15]: 16 ng/dL
- Hormone Levels: Estradiol ([7]; Deslorelin 2 mg/day, Baseline): 184 pg/mL
- Hormone Levels: Progesterone ([7]; Deslorelin 2 mg/day, Baseline): 337 ng/dL
- Hormone Levels: Testosterone ([7]; Deslorelin 2 mg/day, Baseline): 34 ng/dL
- Hormone Levels: Estradiol [7, 16]: 14 pg/mL
- Hormone Levels: Progesterone [7, 16]: 12 ng/dL
- Hormone Levels: Testosterone [7, 16]: 16 ng/dL
- Hormone Levels: Estradiol [7, 17]: 31 pg/mL
- Hormone Levels: Progesterone [7, 17]: 14 ng/dL
- Hormone Levels: Testosterone [7, 17]: 20 ng/dL
- Hormone Levels: Estradiol [7, 18]: 30 pg/mL
- Hormone Levels: Progesterone [7, 18]: 13 ng/dL
- Hormone Levels: Testosterone [7, 18]: 20 ng/dL

SMILES: OC[C@H]1O[C@@H]2O[C@H]3[C@H](O)[C@@H](O)[C@@H](O[C@H]4[C@H](O)[C@@H](O)[C@@H](O[C@H]5[C@H](O)[C@@H](O)[C@@H](O[C@H]6[C@H](O)[C@@H](O)[C@@H](O[C@H]7[C@H](O)[C@@H](O)[C@@H](O[C@H]8[C@H](O)[C@@H](O)[C@@H](O[C@H]9[C@H](O)[C@@H](O)[C@@H](O[C@H]%10[C@H](O)[C@@H](O)[C@@H](O[C@H]1[C@H](O)[C@H]2O)O[C@@H]%10CO)O[C@@H]9CO)O[C@@H]8CO)O[C@@H]7CO)O[C@@H]6CO)O[C@@H]5CO)O[C@@H]4CO)O[C@@H]3CO [δ-cyclodextrin]
- water solubility [8]: 8.19 g/100 mL
